Reference: US8324390B2, “Tetrazole-substituted anthranilamides as pesticides” (Bayer CropScience AG, priority 2008, dated 2012)
Where two headings read alike, the source gives them in different places.

Tests used:
[1] = log P determination by HPLC (EEC Directive 79/831 Annex V.A8); format: physicochemical
Description: The measurements were carried out using an Agilent 1100 LC system with a 50*4.6 Zorbax Eclipse C18 1.8 μm column (oven temperature 55° C., flow rate 2.0 ml/min).
The following mobile phases were used:
Mobile phase A: acetonitrile+1000 μl of formic acid/l
Mobile phase B: Millipore water+900 μl of formic acid/l

[2] = system: larvae of the mustard beetle (Phaedon cochleariae); test: Phaedon test (PHAECO spray treatment); conditions: Phaedon cochleariae, in Brassica rapa, foliar, read-out: effect in % (beetle larvae killed)
[3] = system: caterpillars of the armyworm (Spodoptera frugiperda); test: Spodoptera frugiperda test (SPODFR spray treatment); format: in vivo; conditions: Spodoptera frugiperda, foliar, read-out: effect in % (caterpillars killed)
Text: Solvent: 78.0 parts by weight of acetone

[4] = reversed-phase HPLC, Zorbax Eclipse C18 column, by HPLC according to EEC Directive 79/831 Annex V.A8, read-out: log P
[5] = application rate 100 g/ha, maize leaf discs

SMILES	chromatographic logP ([1]; log P)	pest or weed control at 100 g/ha [2] [%]	pest or weed control at 100 g/ha ([3]; in Zea mays) [%]	chromatographic logP [1, 4]	pest or weed control at 100 g/ha [3, 5] [%]
Cc1cc(C#N)cc(C(=O)NC(C)C2CC2)c1NC(=O)c1cc(Cn2nnnc2C(F)(F)F)nn1-c1ncccc1Cl (stereo not drawn) [Example 185]	3	≥ 80	≥ 80		
C#CCNC(=O)c1cc(C#N)cc(C)c1NC(=O)c1cc(Cn2nnnc2C(F)(F)F)nn1-c1ncccc1Cl [Example 187]	2.48	≥ 80	≥ 80		
Cc1cc(C#N)cc(C(N)=O)c1NC(=O)c1cc(Cn2nnnc2C(F)(F)F)nn1-c1ncccc1Cl [Example 192]	2.12	≥ 80	≥ 80		
Cc1cc(C#N)cc(C(=O)NCC2CCCCC2)c1NC(=O)c1cc(Cn2nnnc2C(F)(F)F)nn1-c1ncccc1Cl [Example 195]	3.26	≥ 80	≥ 80		
Cc1cc(Cl)cc(C(=O)NC(C)(C)C)c1NC(=O)c1cc(Cn2nnnc2C(F)(F)F)nn1-c1ncccc1Cl [Example 197]	3.47	≥ 80	≥ 80		
CNC(=O)c1cc(Cl)cc(C)c1NC(=O)c1cc(Cn2nnnc2C(F)(F)C(F)(F)F)nn1-c1ncccc1Cl [Example 198]	3.1	≥ 80	≥ 80		
Cc1cc(Cl)cc(C(=O)NC(C)C2CC2)c1NC(=O)c1cc(Cn2nnnc2C(F)(F)C(F)(F)F)nn1-c1ncccc1Cl (stereo not drawn) [Example 199]	3.88	≥ 80	≥ 80		
Cc1cc(C#N)cc(C(=O)NC(C)C)c1NC(=O)c1cc(Cn2nnnc2C(F)(F)C(F)(F)F)nn1-c1ncccc1Cl [Example 202]	3.14	≥ 80	≥ 80		
O=C(NC1CC1)c1cc(Cl)cc(Cl)c1NC(=O)c1cc(Cn2nnnc2C(F)(F)C(F)(F)F)nn1-c1ncccc1Cl [Example 204]	3.24	≥ 80	≥ 80		
CC(C)NC(=O)c1cc(Cl)cc(Cl)c1NC(=O)c1cc(Cn2nnnc2C(F)(F)C(F)(F)F)nn1-c1ncccc1Cl [Example 205]	3.52	≥ 80	≥ 80		
CC(C)(C)NC(=O)c1cc(Cl)cc(Cl)c1NC(=O)c1cc(Cn2nnnc2C(F)(F)C(F)(F)F)nn1-c1ncccc1Cl [Example 206]	3.88	≥ 80	≥ 80		
Cc1cc(C#N)cc(C(=O)NCC(F)F)c1NC(=O)c1cc(Cn2nnnc2C(F)(F)F)nn1-c1ncccc1Cl [Example 207]	2.57	≥ 80	≥ 80		
Cc1cc(C#N)cc(C(=O)NCC#N)c1NC(=O)c1cc(Cn2nnnc2C(F)(F)F)nn1-c1ncccc1Cl [Example 208]	2.31	≥ 80	≥ 80		
Cc1cc(C#N)cc(C(=O)NCC#N)c1NC(=O)c1cc(Cn2nnc(C(F)(F)C(F)(F)F)n2)nn1-c1ncccc1Cl [Example 210]	3.01	≥ 80	≥ 80		
CSC[C@H](C)NC(=O)c1cc(Cl)cc(C)c1NC(=O)c1cc(Cn2nnc(C(F)(F)C(F)(F)F)n2)nn1-c1ncccc1Cl [Example 212]	4.09	≥ 80	≥ 80		
CNC(=O)c1cc(C#N)cc(C)c1NC(=O)c1cc(Cn2nnc(C(F)(F)C(F)(F)F)n2)nn1-c1ncccc1Cl [Example 213]	3.05	≥ 80	≥ 80		
CCNC(=O)c1cc(C#N)cc(C)c1NC(=O)c1cc(Cn2nnc(C(F)(F)C(F)(F)F)n2)nn1-c1ncccc1Cl [Example 215]	3.24	≥ 80	≥ 80		
CSC[C@H](C)NC(=O)c1cc(C#N)cc(C)c1NC(=O)c1cc(Cn2nnc(C(F)(F)C(F)(F)F)n2)nn1-c1ncccc1Cl [Example 216]	3.68	≥ 80	≥ 80		
Cc1cc(Cl)cc(C(=O)NC2CC2)c1NC(=O)c1cc(Cn2nnc(C(F)(F)F)n2)nn1-c1ncccc1C(F)(F)F [Example 225]		≥ 80		3.39	≥ 80
CNC(=O)c1cc(Cl)cc(C)c1NC(=O)c1cc(Cn2nnc(C(F)(F)F)n2)nn1-c1ncccc1C(F)(F)F [Example 226]		≥ 80		3.16	≥ 80

SMILES	chromatographic logP ([1]; log P)	pest or weed control at 100 g/ha [2] [%]	pest or weed control at 100 g/ha ([3]; in Zea mays) [%]	chromatographic logP [1, 4]	pest or weed control at 100 g/ha [3, 5] [%]
Cc1cc(Cl)cc(C(=O)NC(C)C)c1NC(=O)c1cc(Cn2nnc(C(F)(F)F)n2)nn1-c1ncccc1C(F)(F)F [Example 227]		≥ 80		3.64	≥ 80
CNC(=O)c1cc(Br)cc(C)c1NC(=O)c1cc(Cn2nnc(C(F)(F)F)n2)nn1-c1ncccc1C(F)(F)F [Example 228]		≥ 80		3.28	≥ 80
Cc1cc(Cl)cc(C(=O)NC2CC2)c1NC(=O)c1cc(Cn2nnc(C(F)F)n2)nn1-c1ncccc1Cl [Example 230]	2.72	≥ 80	≥ 80		
Cc1cc(Cl)cc(C(=O)NC(C)C)c1NC(=O)c1cc(Cn2nnc(C(F)F)n2)nn1-c1ncccc1Cl [Example 231]	2.95	≥ 80	≥ 80		
Cc1cc(C#N)cc(C(=O)NC(C)(C)C)c1NC(=O)c1cc(Cn2nnc(C(F)(F)F)n2)nn1-c1ncccc1C(F)(F)F [Example 232]		≥ 80		3.59	≥ 80
Cc1cc(C#N)cc(C(=O)NC2CC2)c1NC(=O)c1cc(Cn2nnc(C(F)(F)F)n2)nn1-c1ncccc1C(F)(F)F [Example 233]		≥ 80		3.07	≥ 80
CCNC(=O)c1cc(C#N)cc(C)c1NC(=O)c1cc(Cn2nnc(C(F)(F)F)n2)nn1-c1ncccc1C(F)(F)F [Example 234]		≥ 80		3.07	≥ 80
CCNC(=O)c1cc(Cl)cc(C)c1NC(=O)c1cc(Cn2nnc(C(F)(F)F)n2)nn1-c1ncccc1C(F)(F)F [Example 237]		≥ 80		3.43	≥ 80
CNC(=O)c1cc(Cl)cc(C)c1NC(=O)c1cc(Cn2nnc(C(F)(F)F)n2)nn1-c1ccc(Cl)cc1Cl [Example 239]		≥ 80		3.97	≥ 80
Cc1cc(I)cc(C(=O)NC(C)C)c1NC(=O)c1cc(Cn2nnc(C(F)(F)F)n2)nn1-c1ncccc1C(F)(F)F [Example 243]		≥ 80		3.9	≥ 80
CCNC(=O)c1cc(Br)cc(C)c1NC(=O)c1cc(Cn2nnc(C(F)(F)F)n2)nn1-c1ncccc1C(F)(F)F [Example 244]		≥ 80		3.52	≥ 80
Cc1cc(Br)cc(C(=O)NC(C)(C)C)c1NC(=O)c1cc(Cn2nnc(C(F)(F)F)n2)nn1-c1ncccc1C(F)(F)F [Example 245]		≥ 80		4.13	≥ 80
CNC(=O)c1cc(I)cc(C)c1NC(=O)c1cc(Cn2nnc(C(F)(F)F)n2)nn1-c1ncccc1C(F)(F)F [Example 247]		≥ 80		3.4	≥ 80
Cc1cc(Br)cc(C(=O)NCC#N)c1NC(=O)c1cc(Cn2nnc(C(F)(F)F)n2)nn1-c1ncccc1C(F)(F)F [Example 248]		≥ 80		3.21	≥ 80
Cc1cc(Br)cc(C(=O)NC(C)C)c1NC(=O)c1cc(Cn2nnc(C(F)(F)F)n2)nn1-c1ncccc1C(F)(F)F [Example 249]		≥ 80		3.76	≥ 80
Cc1cc(I)cc(C(N)=O)c1NC(=O)c1cc(Cn2nnc(C(F)(F)F)n2)nn1-c1ncccc1C(F)(F)F [Example 250]		≥ 80		3.16	≥ 80
Cc1cc(Br)cc(C(N)=O)c1NC(=O)c1cc(Cn2nnc(C(F)(F)F)n2)nn1-c1ncccc1C(F)(F)F [Example 251]		≥ 80		3.04	≥ 80
Cc1cc(Cl)cc(C(=O)NCC#N)c1NC(=O)c1cc(Cn2nnc(C(F)(F)F)n2)nn1-c1ncccc1C(F)(F)F [Example 252]		≥ 80		3.28	≥ 80
Cc1cc(C#N)cc(C(=O)NCC#N)c1NC(=O)c1cc(Cn2nnc(C(F)(F)F)n2)nn1-c1ncccc1C(F)(F)F [Example 253]		≥ 80		2.81	≥ 80
Cc1cc(Cl)cc(C(=O)NC(C)C2CC2)c1NC(=O)c1cc(Cn2nnc(C(F)F)n2)nn1-c1ncccc1Cl (stereo not drawn) [Example 256]	3.24	≥ 80	≥ 80		
